Results published in patent US20110097268A1, “RADIOHALOIMATINIBS AND METHODS OF THEIR SYNTHESIS AND USE IN PET IMAGING OF CANCERS” (priority 2006, published 2011).

Experiment: Storage stability of STI-Cl at room temperature
Type: physicochemical
Excerpt: Attempts to make radiolabeling precursor, triflate, mesylate active leaving group from STI-OH failed because it was easily degraded into a mixture of starting material alcohol and STI-Cl during the purification of chromatography on Silica Gel. The behavior of these β-triflate amines may be due to the participation effect of nitrogen which cause triflate to leave by aliphatic chain cyclisation giving the aziridinium ion, which in turn reacts with the nucleophilic agent OH^−, Cl^−. In order to get a pure precursor, STI-Cl analog was selected as a target compound. The hydroxyl-Benzoic acid (9c) was treated with thionyl chloride to achieve the corresponding chloro-acid chloride dihydrochloride (10d). Subsequent condensation with N-(2-Methyl-5-aminophenyl)-4-(3-pyridyl)-2-pyrimidine-amine (6) in pyridine affords the STI-Cl. […] The Sti-Cl was treated with tetra ammonia fluoride at 80° C. in acetonitrile for 30 mins to generate cold Sti-F. Sti-Cl was also treated with tetra ammonia fluoride at 80° C. in acetonitrile microwave for 5 mins to generate cold Sti-F. The traditional heating method gave more yield and the microwave condition gave more clean reaction. (FIG. 3).

Question: For `Cc1ccc(NC(=O)c2ccc(CN3CCN(CCCl)CC3)cc2)cc1Nc1nccc(-c2cccnc2)n1` [STI-Cl], which stability is on record?
Answer: The stability was “not stable and decomposed at room temperature over two weeks”.
